Measured values taken from patent US20250276983A1, “COMPOUNDS AND METHODS FOR MODULATING HER2” (IAMBIC THERAPEUTICS, INC., priority 2022, published 2025).
Where two headings read alike, the source gives them in different places.

What was measured:
Type in all cases: cell-based
[1] = test system: BaF3_EGFRWT cells; experiment: Cell growth inhibition assay, BaF3_EGFRWT; settings: 80 ng/mL recombinant human EGF, 3 days treatment, CellTiterGlo 2.0, read-out: EGFR WT IC50 (nM), cell growth inhibition
[2] = test system: BaF3_HER2WT cells; experiment: Cell growth inhibition assay, BaF3_HER2WT; settings: 3 days treatment, CellTiterGlo 2.0, read-out: HER2 WT IC50 (nM), cell growth inhibition
[3] = test system: BaF3_HER2YVMA cells; experiment: Cell growth inhibition assay, BaF3_HER2YVMA; settings: BaF3_HER2YVMA cells, 3 days treatment, CellTiterGlo 2.0, read-out: HER2-YVMA IC50 (nM), cell growth inhibition

| Compound | IC50 ([1]; 72 h) | IC50 ([2]; 72 h) | IC50 ([3]; 72 h) | IC50 [1] | IC50 [2] | IC50 [3] |
| --- | --- | --- | --- | --- | --- | --- |
| C=CC(=O)N1CC2CCC(C1)N2c1ccn2ncnc(Nc3ccc(Oc4ccn5ncnc5c4)c(C)c3)c12 [Example 44, 1-(8-(4-((4-([1,2,4]triazolo[1,5-a]pyridin-7-yloxy)-3-methylphenyl)amino)pyrrolo[2,1-f][1,2,4]triazin-5-yl)-3,8-diazabicyclo[3.2.1]octan-3-yl)prop-2-en-1-one] | 1500 to 5000 nM | < 200 nM | < 200 nM | – | – | – |
| Cc1cc(Nc2ncnn3ccc(C4CC5CCC(C4)N5C(=O)/C=C/CN(C)C)c23)ccc1Oc1ccn2ncnc2c1 (single isomer, unassigned) [Examples 122 and 123, first eluting isomer, (E)-1-(-3-(4-((4-([1,2,4]triazolo[1,5-a]pyridin-7-yloxy)-3-methylphenyl)amino)pyrrolo[2,1-f][1,2,4]triazin-5-yl)-8-azabicyclo[3.2.1]octan-8-yl)-4-(dimethylamino)but-2-en-1-one] | – | < 200 nM | < 200 nM | 500 to 1500 nM | – | – |
| Cc1cc(Nc2ncnn3ccc(N4C5CCC4CN(C(=O)/C=C/CN(C)C)C5)c23)ccc1Oc1ccn2ncnc2c1 [Example 45, (E)-1-(8-(4-((4-([1,2,4]triazolo[1,5-a]pyridin-7-yloxy)-3-methylphenyl)amino)pyrrolo[2,1-f][1,2,4]triazin-5-yl)-3,8-diazabicyclo[3.2.1]octan-3-yl)-4-(dimethylamino)but-2-en-1-one] | 1500 to 5000 nM | < 200 nM | < 200 nM | – | – | – |
| C=CC(=O)NC1CCCN(c2ccn3ncnc(Nc4ccc(Oc5ccn6ncnc6c5)c(C)c4)c23)C1 (stereo not drawn) [Example 76, N-(1-(4-((4-([1,2,4]triazolo[1,5-a]pyridin-7-yloxy)-3-methylphenyl)amino)pyrrolo[2,1-f][1,2,4]triazin-5-yl)piperidin-3-yl)acrylamide] | 1500 to 5000 nM | < 200 nM | 500 to 1500 nM | – | – | – |
| Cc1cc(Nc2ncnn3ccc(C4CN(C(=O)/C=C/CC(C)C)C4)c23)ccc1Oc1ccn2ncnc2c1 [Example 43, (E)-1-(3-(4-((4-([1,2,4]triazolo[1,5-a]pyridin-7-yloxy)-3-methylphenyl)amino)pyrrolo[2,1-f][1,2,4]triazin-5-yl)azetidin-1-yl)-5-methylhex-2-en-1-one] | 1500 to 5000 nM | < 200 nM | 200 to 500 nM | – | – | – |
| Cc1cc(Nc2ncnn3ccc(C4(F)CCN(C(=O)/C=C/CN(C)C)CC4)c23)ccc1Oc1ccn2ncnc2c1 [Example 175, (E)-1-(4-(4-((4-([1,2,4]triazolo[1,5-a]pyridin-7-yloxy)-3-methylphenyl)amino)pyrrolo[2,1-f][1,2,4]triazin-5-yl)-4-fluoropiperidin-1-yl)-4-(dimethylamino)but-2-en-1-one] | 1500 to 5000 nM | 1500 to 5000 nM | 1500 to 5000 nM | – | – | – |
| Cc1cc(Nc2ncnn3ccc(N4CC5CCC(C4)N5C(=O)/C=C/CN(C)C)c23)ccc1Oc1ccn2ncnc2c1 [Example 47, (E)-1-(3-(4-((4-([1,2,4]triazolo[1,5-a]pyridin-7-yloxy)-3-methylphenyl)amino)pyrrolo[2,1-f][1,2,4]triazin-5-yl)-3,8-diazabicyclo[3.2.1]octan-8-yl)-4-(dimethylamino)but-2-en-1-one] | 1500 to 5000 nM | < 200 nM | < 200 nM | – | – | – |
| Cc1cc(Nc2ncnn3ccc(N4CCN(C(=O)/C=C/CN(C)C)CC4=O)c23)ccc1Oc1ccn2ncnc2c1 [Example 54, (E)-1-(4-((4-([1,2,4]triazolo[1,5-a]pyridin-7-yloxy)-3-methylphenyl)amino)pyrrolo[2,1-f][1,2,4]triazin-5-yl)-4-(4-(dimethylamino)but-2-enoyl)piperazin-2-one] | 1500 to 5000 nM | 500 to 1500 nM | 1500 to 5000 nM | – | – | – |
| Cc1cc(Nc2ncnn3ccc(C4CCCN(C(=O)/C=C/CN(C)C)C4)c23)ccc1Oc1ccn2ncnc2c1 (single isomer, unassigned) [Examples 107 and 108, second eluting isomer, (E)-1-(3-(4-((4-([1,2,4]triazolo[1,5-a]pyridin-7-yloxy)-3-methylphenyl)amino)pyrrolo[2,1-f][1,2,4]triazin-5-yl)piperidin-1-yl)-4-(dimethylamino)but-2-en-1-one] | – | – | – | 1500 to 5000 nM | 500 to 1500 nM | 1500 to 5000 nM |
| Cc1cc(Nc2ccn3ncnc(C4CC5CCC(C4)N5C(=O)/C=C/CN(C)C)c23)ccc1Oc1ccn2cnnc2c1 (stereo not drawn) [Example 33, (E)-1-(3-(5-((4-([1,2,4]triazolo[4,3-a]pyridin-7-yloxy)-3-methylphenyl)amino)pyrrolo[2,1-f][1,2,4]triazin-4-yl)-8-azabicyclo[3.2.1]octan-8-yl)-4-(dimethylamino)but-2-en-1-one acetate] | 1500 to 5000 nM | < 200 nM | 200 to 500 nM | – | – | – |
| Cc1cc(Nc2ncnn3ccc(C4CN(C(=O)/C=C/CN5CCC(F)(F)CC5)C4)c23)ccc1Oc1ccn2ncnc2c1 [Example 85, (E)-1-(3-(4-((4-([1,2,4]triazolo[1,5-a]pyridin-7-yloxy)-3-methylphenyl)amino)pyrrolo[2,1-f][1,2,4]triazin-5-yl)azetidin-1-yl)-4-(4,4-difluoropiperidin-1-yl)but-2-en-1-one] | 1500 to 5000 nM | < 200 nM | < 200 nM | – | – | – |
| C=C(CN(C)C)C(=O)N1C2CCC1CC(c1ccn3ncnc(Nc4ccc(Oc5ccn6ncnc6c5)c(C)c4)c13)C2 (single isomer, unassigned) [Examples 126 and 127, first eluting isomer, 1-(3-(4-((4-([1,2,4]triazolo[1,5-a]pyridin-7-yloxy)-3-methylphenyl)amino)pyrrolo[2,1-f][1,2,4]triazin-5-yl)-8-azabicyclo[3.2.1]octan-8-yl)-2-((dimethylamino)methyl)prop-2-en-1-one] | 1500 to 5000 nM | < 200 nM | – | – | – | 200 to 500 nM |
| C=CC(=O)N1CCCC(c2ccn3ncnc(Nc4ccc(Oc5ccn6ncnc6c5)c(C)c4)c23)CC1 (stereo not drawn) [Example 9, 1-(4-(4-((4-([1,2,4]triazolo[1,5-a]pyridin-7-yloxy)-3-methylphenyl)amino)pyrrolo[2,1-f][1,2,4]triazin-5-yl)azepan-1-yl)prop-2-en-1-one] | 200 to 500 nM | < 200 nM | < 200 nM | – | – | – |
| Cc1cc(Nc2ncnn3ccc(C4(O)CCN(C(=O)/C=C/CN(C)C)CC4)c23)ccc1Oc1ccn2ncnc2c1 [Example 50, (E)-1-(4-(4-((4-([1,2,4]triazolo[1,5-a]pyridin-7-yloxy)-3-methylphenyl)amino)pyrrolo[2,1-f][1,2,4]triazin-5-yl)-4-hydroxypiperidin-1-yl)-4-(dimethylamino)but-2-en-1-one] | 1500 to 5000 nM | 200 to 500 nM | 500 to 1500 nM | – | – | – |
| Cc1cc(Nc2ncnn3ccc(C4CCN(C(=O)[C@H](F)Cl)CC4)c23)ccc1Oc1ccn2ncnc2c1 (single isomer, unassigned) [Examples 173 and 174, first eluting isomer] | 1500 to 5000 nM | 200 to 500 nM | 1500 to 5000 nM | – | – | – |
| CO[C@H]1CN(C/C=C/C(=O)N2CCC(c3ccn4ncnc(Nc5ccc(Oc6ccn7ncnc7c6)c(C)c5)c34)CC2)C[C@H]1OC [Example 169, (E)-1-(4-(4-((4-([1,2,4]triazolo[1,5-a]pyridin-7-yloxy)-3-methylphenyl)amino)pyrrolo[2,1-f][1,2,4]triazin-5-yl)piperidin-1-yl)-4-((3R,4S)-3,4-dimethoxypyrrolidin-1-yl)but-2-en-1-one] | 1500 to 5000 nM | < 200 nM | < 200 nM | – | – | – |
| Cc1cc(Nc2ncnn3ccc(C4(O)CN(C(=O)/C=C/CN(C)C)C4)c23)ccc1Oc1ccn2ncnc2c1 [Example 51, (E)-1-(3-(4-((4-([1,2,4]triazolo[1,5-a]pyridin-7-yloxy)-3-methylphenyl)amino)pyrrolo[2,1-f][1,2,4]triazin-5-yl)-3-hydroxyazetidin-1-yl)-4-(dimethylamino)but-2-en-1-one] | 1500 to 5000 nM | < 200 nM | < 200 nM | – | – | – |
| COC1(c2ccn3ncnc(Nc4ccc(Oc5ccn6ncnc6c5)c(C)c4)c23)CCN(C(=O)/C=C/CN(C)C)CC1 [Example 52, (E)-1-(4-(4-((4-([1,2,4]triazolo[1,5-a]pyridin-7-yloxy)-3-methylphenyl)amino)pyrrolo[2,1-f][1,2,4]triazin-5-yl)-4-methoxypiperidin-1-yl)-4-(dimethylamino)but-2-en-1-one] | 1500 to 5000 nM | 200 to 500 nM | 500 to 1500 nM | – | – | – |
| C=C(CN(C)C)C(=O)N1CC2CCC(C1)N2c1ccn2ncnc(Nc3ccc(Oc4ccn5ncnc5c4)c(C)c3)c12 [Example 49, 1-(8-(4-((4-([1,2,4]triazolo[1,5-a]pyridin-7-yloxy)-3-methylphenyl)amino)pyrrolo[2,1-f][1,2,4]triazin-5-yl)-3,8-diazabicyclo[3.2.1]octan-3-yl)-2-((dimethylamino)methyl)prop-2-en-1-one acetate] | 1500 to 5000 nM | < 200 nM | < 200 nM | – | – | – |
| CO[C@@H]1CN(C/C=C/C(=O)N2CCC(c3ccn4ncnc(Nc5ccc(Oc6ccc7c(c6)ncn7C)c(C)c5)c34)CC2)C[C@H]1OC [Example 168, (E)-4-((3R,4R)-3,4-dimethoxypyrrolidin-1-yl)-1-(4-(4-((3-methyl-4-((1-methyl-1H-benzo[d]imidazol-5-yl)oxy)phenyl)amino)pyrrolo[2,1-f][1,2,4]triazin-5-yl)piperidin-1-yl)but-2-en-1-one] | 1500 to 5000 nM | < 200 nM | < 200 nM | – | – | – |
